Laboratory results taken from patent US9839642B2, “Beta-tetrazolyl-propionic acids as metallo-beta-lactamase inhibitors” (priority 2014, dated 2017).
Where two headings read alike, the source gives them in different places.

Legend:
[1] = target: IMP-1 (Serratia marcescens, UniProt P52699); test: Enzyme activity: determination of IC50, fluorescence assay with CCF2-FA substrate; assay type: biochemical; conditions: CCF2-FA 1.25 μM, 2 hours at 25° C., read-out: IMP1 IC50
In short: (§1)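 In pH 7 phosphate buffer (100 mM) with 10 μM ZnSO4 and 0.005% Tween-20, CCF2-FA substrate (1.25 μM final) was hydrolysed for 2 h at 25 °C by NDM-1, IMP-1 or VIM-1 at 1, 2 or 30 pM in the presence of inhibitor at 20–0.00063 μM. Emission 460 nm/excitation 405 nm; 4-parameter curve fit gave IC50.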

[2] = target: NDM-1 (Klebsiella pneumoniae, UniProt C7C422); test: as above; assay type: biochemical; conditions: CCF2-FA 1.25 μM, 2 hours at 25° C., read-out: NDM1 IC50
In short: as §1

[3] = target: VIM-1 (Pseudomonas aeruginosa, UniProt A0A0F7KYQ8); test: as above; assay type: biochemical; conditions: CCF2-FA 1.25 μM, 2 hours at 25° C., read-out: VIM1 IC50
In short: as §1

[4] = test system: Escherichia coli expressing NDM-1 (CLB30016); test: Antibiotic potentiation activity: synergistic concentration (MITC95) with imipenem, growth by OD600; assay type: cell-based
In short: (§2)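 MITC95 = lowest inhibitor concentration giving 95% growth inhibition, read by absorbance after 22–24 h at 35° C. Compound range 200 μM to 0.195 μM, imipenem fixed at 1 or 4 μg/ml, bacteria in 1.1×CAMHB from saline suspension diluted 1:100.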

[5] = test system: Klebsiella pneumoniae expressing VIM-1 (IHMA599644); test: as above; assay type: cell-based
In short: as §2

[6] = test system: Serratia marcescens expressing IMP-1 (CL5741); test: as above; assay type: cell-based
In short: as §2

[7] = 95% inhibition of bacterial growth, strain CLB30016
[8] = 95% inhibition of bacterial growth, strain IHMA599644
[9] = 95% inhibition of bacterial growth, strain CL5741
[10] = E. coli CLB30016 (NDM-1), 95% inhibition of growth
[11] = K. pneumoniae IHMA599644 (VIM-1), 95% inhibition of growth
[12] = S. marcescens CL5741 (IMP-1), 95% inhibition of growth

Chain of NDM-1 (C7C422 29-270, looked up, species assumed): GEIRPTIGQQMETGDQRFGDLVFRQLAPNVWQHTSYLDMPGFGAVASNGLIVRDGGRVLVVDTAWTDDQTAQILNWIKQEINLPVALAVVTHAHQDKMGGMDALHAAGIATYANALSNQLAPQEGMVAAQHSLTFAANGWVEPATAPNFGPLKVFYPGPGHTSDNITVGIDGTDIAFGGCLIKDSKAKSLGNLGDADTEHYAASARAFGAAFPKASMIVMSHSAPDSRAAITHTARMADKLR
Chain of IMP-1 (P52699 19-246, looked up, species assumed): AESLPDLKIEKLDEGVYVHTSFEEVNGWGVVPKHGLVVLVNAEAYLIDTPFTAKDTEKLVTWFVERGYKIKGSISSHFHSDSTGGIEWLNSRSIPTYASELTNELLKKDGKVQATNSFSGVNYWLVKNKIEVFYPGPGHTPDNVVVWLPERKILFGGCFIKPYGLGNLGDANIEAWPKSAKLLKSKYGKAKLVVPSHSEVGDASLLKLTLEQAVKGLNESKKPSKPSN

Structure (SMILES)	IC50 ([1]; enzyme 2 pM) [nM]	IC50 ([2]; enzyme 1 pM) [nM]	IC50 ([3]; enzyme 30 pM) [nM]	NDM1 EC30016 MITC95 [4, 7] [µM]	VIM1 KP599644 MITC95 [5, 8] [µM]	IMP1 SM5741 MITC95 [6, 9] [µM]	IC50 ([1]; IMP-1 enzyme 2 pM) [nM]	IC50 ([2]; NDM-1 enzyme 1 pM) [nM]	IC50 ([3]; VIM-1 enzyme 30 pM) [nM]	NDM1 EC30016 MITC95 [4, 10] [µM]	VIM1 KP599644 MITC95 [5, 11] [µM]	IMP1 SM5741 MITC95 [6, 12] [µM]
NCc1ccc(-c2ccc(C[C@H](c3nnn[nH]3)[C@@H](C(=O)O)C3CCCC3)cc2)cc1 [Example 75, (2S,3S)-4-(4′-(aminomethyl)-[1,1′-biphenyl]-4-yl)-2-cyclopentyl-3-(1H-tetrazol-5-yl)butanoic acid]	36	25	4.3	3.1	9.4	0.78						
CCC[C@H](C(=O)O)[C@H](Cc1ccc(NCCN2CCCC(O)C2)cc1)c1nn[nH]n1 (stereo partly drawn) [Example 220, (2S)-2-[(1S)-2-(4-{[2-(3-hydroxypiperidin-1-yl)ethyl]amino}phenyl)-1-(2H-tetrazol-5-yl)ethyl]pentanoic acid]	1600	360	75	25	50	50						
CCC[C@H](C(=O)[O-])[C@H](Cc1cc[n+](C)cc1)c1nnn[nH]1 [Example 417, (S)-2-((S)-2-(1-methylpyridin-1-ium-4-yl)-1-(1H-tetrazol-5-yl)ethyl)pentanoate]							11100	1280	45.1	4.688	9.375	200
CCC[C@H](C(=O)O)[C@H](Cc1ccc(N2CCN3CCCC3C2)cc1)c1nn[nH]n1 (stereo partly drawn) [Example 232, (2S)-2-[(1S)-2-[4-(hexahydropyrrolo[1,2-a]pyrazin-2(1H)-yl)phenyl]-1-(2H-tetrazol-5-yl)ethyl]pentanoic acid]	420	180	90	12.5	50	12.5						
CCC[C@H](C(=O)O)[C@H](Cc1cccc(-c2ccccc2CN2CCCCC2)c1)c1nn[nH]n1 [Example 357, (2S)-2-[(1S)-2-[2′-(piperidin-1-ylmethyl)biphenyl-3-yl]-1-(2H-tetrazol-5-yl)ethyl]pentanoic acid]							2100	170	63	150	150	38
CCC[C@H](C(=O)O)[C@H](Cc1ccc(NCC(=O)N(C)C)cc1)c1nn[nH]n1 [Example 218, (2S)-2-[(1S)-2-(4-{[2-(dimethylamino)-2-oxoethyl]amino}phenyl)-1-(2H-tetrazol-5-yl)ethyl]pentanoic acid]	460	40	21	31	50	25						
CCC[C@H](C(=O)O)[C@H](Cc1ccc(C2CCNCC2O)cc1)c1nnn[nH]1 (mixture of isomers) [Example 416, (2S)-2-((1S)-2-(4-(3-hydroxypiperidin-4-yl)phenyl)-1-(1H-tetrazol-5-yl)ethyl)pentanoic acid]							1140	280	20.8	25	25	25
CCC[C@H](C(=O)O)[C@H](Cc1cccc(-c2cccc(CN)c2)c1)c1nn[nH]n1 [Example 359, (2S)-2-[(1S)-2-[3′-(aminomethyl)biphen-yl-3-yl]-1-(2H-tetrazol-5-yl)ethyl]pentanoic acid]							750	60	2.5	9.4	6.2	12.5
CCC[C@H](C(=O)O)[C@H](Cc1cccc(-c2cccc(C(N)=O)c2)c1)c1nn[nH]n1 [Example 341, (2S)-2-[(1S)-2-(3′-carbamoylbiphenyl-3-yl)-1-(2H-tetrazol-5-yl)ethyl]pentanoic acid]							110	6.6	0.99	18.8	18.8	2.3
O=C(O)[C@@H](CC(F)(F)F)[C@H](Cc1ccc(NCCO)nc1)c1nnn[nH]1 [Example 436, (S)-4,4,4-trifluoro-2-((S)-2-(6-((2-hydroxyethyl)amino)pyridin-3-yl)-1-(1H-tetrazol-5-yl)ethyl)butanoic acid]							8290	1050	54	2.344	25	100
CCC[C@H](C(=O)O)[C@H](Cc1ccc(N2CCN(C)CC2)cc1)c1nn[nH]n1 [Example 231, (2S)-2-[(1S)-2-[4-(4-methylpiperazin-1-yl)phenyl]-1-(2H-tetrazol-5-yl)ethyl]pentanoic acid]	450	160	69	18.8	50	18.8						
CCC[C@H](C(=O)O)[C@H](Cc1ccc(-c2ccc(CN)cc2)nc1)c1nnn[nH]1 [Example 96, (4-(5-((2S,3S)-3-carboxy-2-(1H-tetrazol-5-yl)hexyl)pyridin-2-yl)phenyl)methanaminium]	3100	280	9	6.2	18.8	37						
CCC[C@H](C(=O)O)[C@H](Cc1ccc(N)nc1)c1nnn[nH]1 [Example 114, (S)-2-((S)-2-(6-aminopyridin-3-yl)-1-(1H-tetrazol-5-yl)ethyl)pentanoic acid]	3700	180	6.2	0.39	2.3	18.8						
CCC[C@H](C(=O)O)[C@H](Cc1ccc(C2(O)CCNC2)cc1)c1nnn[nH]1.O=C(O)C(F)(F)F (stereo partly drawn) [Example 432, 3-(4-((2S,3S)-3-carboxy-2-(1H-tetrazol-5-yl)hexyl)phenyl)-3-hydroxypyrrolidin-1-ium 2,2,2-trifluoroacetate]							1010	141	5.58	9.375	12.5	12.5
CCC[C@H](C(=O)O)[C@H](Cc1cnc(SC)nc1)c1nnn[nH]1 [Example 285, (S)-2-((S)-2-(2-(methylthio)pyrimidin-5-yl)-1-(1H-tetrazol-5-yl)ethyl)pentanoic acid]							14000	190	3.3	25	25	>200
CC(C)C[C@H](C(=O)O)[C@H](Cc1ccc(NCCC(C)N)nc1)c1nnn[nH]1 (stereo partly drawn) [Example 318, (2S)-2-[(1S)-2-{6-[(3-aminobutyl)amino]pyridin-3-yl}-1-(1H-tetrazol-5-yl)ethyl]-4-methylpentanoic acid]							2000	370	11	1.6	12.5	18.8
CC(C)C[C@H](C(=O)O)[C@H](Cc1ccc(CCN2CCCCC2=O)c(F)c1)c1nn[nH]n1 [Example 438, (S)-2-((S)-2-(3-fluoro-4-(2-(2-oxopiperidin-1-yl)ethyl)phenyl)-1-(2H-tetrazol-5-yl)ethyl)-4-methylpentanoic acid]							4.84	13.4	1.57	25	75	1.172
CCC[C@H](C(=O)O)[C@H](Cc1ccc(C2CCN(C)CC2)cc1)c1nn[nH]n1 [Example 300, (2S)-2-[(1S)-2-[4-(1-methylpiperidin-4-yl)phenyl]-1-(2H-tetrazol-5-yl)ethyl]pentanoic acid]							2100	550	140	50	100	25
CCC[C@H](C(=O)O)[C@H](Cc1cccc(-c2cncc3ccccc23)c1)c1nn[nH]n1 [Example 352, (2S)-2-[(1S)-2-(3-isoquinolin-4-ylphenyl)-1-(2H-tetrazol-5-yl)ethyl]pentanoic acid]							7.8	1.7	1.7	18.8	50	0.39
